{
  "source": "patent US20030086869A1",
  "about": "“Methods and kits for diagnosing a pancreatic-based fat malabsorption disorder” (priority 2001, published 2003)",
  "type_in_all_cases": "in vivo, human",
  "key": {"[1]": {"experiment": "Malabsorption Blood Test (MBT): serum levels of PA and HA after oral PA and THA test breakfast meal in healthy control subjects", "protocol": "(§1) Both whole post-absorptive serum and isolated chylomicron fractions of the serum are analyzed for fatty acid composition. Chylomicrons are isolated from plasma by centrifugation at d=1.006 g/ml for 30 minutes at 26,000 g (Hatch, F. T., et al., 1968; Adv. Lipid Res., 6:1-68). Total lipids are extracted from each specimen following the method of Bligh and Dyer (Bligh, E. G., et al., 1959; Can. J. Biochem., 37:911-917). Following transmethylation of the lipid extracts using BF3-methanol, fatty acid composition is determined using gas-liquid chromatographic (GLC) analysis using a Hewlett Packard GLC equipped with a flame ionization detector, an automatic 7673 sampler and […]×0.25 mm ID column composed of a 0.20 micron film of SP-2560 (Supelco, Bellefonte, Pa.) (Morrison, W., et al., 1964; J. Lipid Res. 5:600-608). The temperature is programmed to change from 140° C. to 240° C. at a rate of 4° C./minute. At the time of extraction, heptadecanoic methyl ester is added as an internal standard.\nHealthy control subjects between 18 and 50 years of age were selected. Exclusion criteria included: any chronic illness known to affect nutrient absorption, body mass index (BMI) <21 or >30 kg/m^2 (generally accepted healthy adult ranges), therapy with lipid lowering drugs, diabetes mellitus (NIDDM and IDDM), disorders associated with altered energy metabolism (e.g., hypothyroidism) and disinterest in participating in all three dosing experiments. This adult age range was selected for several reasons: (a) adult subjects are likely to remain committed to all three components of the study; (b) adults will understand the need to provide reliable feedback on taste and tolerance of the test breakfast meal and the entire malabsorption test procedure; and (c) adult subjects are able to plan the experimental day for full cooperation with the multiple phlebotomy events from 0700 to 1500 hours.\nUpon arrival at the study center, subjects had their weight and height measured and an experienced phlebotomist inserted a self-retaining intravenous catheter with a heparin lock for serial blood sampling. After initially drawing 2 milliliters of blood into a sterile syringe, the experimental blood sample (2 milliliters) was drawn and immediately stored in a 4-milliliter serum separator tube. Thereafter, the initial 2 milliliters of blood was infused back into the catheter followed by 2 milliliters of heparin flush. After the baseline blood samples were obtained, the subjects drank an approximately 8 to 12 ounce liquid test breakfast meal. This meal contained one to three doses of PA and THA in a random distribution. Subjects were asked to consume the test breakfast meal within five minutes. Thereafter, serial blood samples were obtained at regular intervals over a period ranging from 30 minutes to 24 hours. During the initial eight-hour period, subjects were permitted to ingest non-caloric and non-caffeinated beverages. A study protocol lunch of known fat content was provided and actual food intake was recorded. Ambulation was limited to maintain adherence to the 30 to 60 minute intervals in the blood sampling schedule. After completion of the blood sampling, the catheter was removed, a snack was offered, and the subjects were encouraged to consume a full meal. The lipid doses (mg/kg) of PA and THA used in this experiment were based on doses 10-fold higher than similar fats used to correct essential fatty acid deficiency in cystic fibrosis, and previous studies which used ^13C […] to qualitatively assess fat malabsorption in pancreatic disease (Rosenlund, M. L., et al., 1977;Pediatrics, 59:428-32; Wutzke, K. D., et al., 1999; J. Pediatr. Gastroenterol. Nutr., 29:148-54).\nFour healthy control subjects were administered a dose of 30 mg/kg PA and 30 mg/kg THA in the digestible composition (a liquid breakfast shake) after a 12-hour fast. Blood was drawn at baseline before consumption of the shake and then every 30 minutes thereafter until hour 6. […]"}, "[2]": {"experiment": "MBT absorption of PA and HA prior to Orlistat in fifteen healthy subjects", "conditions": "PA 2.5 grams and THA 8.0 grams, FIG. 10, 11", "from_the_text": "Fifteen healthy adult subject volunteers (9 women) 18 to 50 years of age were recruited through local advertisements. Exclusion criteria included: any chronic illness known to affect nutrient absorption, body mass index (BMI) of less than 21 or greater than 30 kg/m^2 (i.e., outside of generally accepted healthy adult ranges), therapy with lipid lowering drugs, diabetes mellitus (NIDDM, IDDM) and disorders associated with altered energy metabolism (e.g., hypothyroidism). This adult age range was selected because Orlistat is FDA approved in adults. In addition, adults are able to plan the experimental days for cooperation with four days of the research study diet, outpatient 72-hour stool collection and phlebotomy requirements. […]\nSubjects underwent a 12-hour fast from 2100 hours on day #1 of the study. […] Upon arrival at the study center on the morning of day #2, subjects had their weight and height measured, and an experienced phlebotomist inserted a self-retaining intravenous catheter with a heparin lock for serial blood sampling. […] The number and timing of blood samples was determined by the experiments in Example 1, and was expected to be six or fewer samples over an eight-hour or less time period. […]"}, "[3]": {"experiment": "MBT serum levels of PA and HA in subjects with CF and pancreatic insufficiency on and off pancreatic enzymes", "protocol": "as §1\nSubjects with CF and pancreatic insufficiency currently treated with pancreatic enzymes, aged greater than 8 years were recruited. Exclusion criteria included: forced expiratory volume of the lungs at 1 second (FEV1) <40%, a history of fibrosing colonopathy or significant bowel resection (>10 cm), mental retardation, significant neurological deficit, developmental disability and autism. Subjects are in their usual state of good health. This age range was selected because it includes children during active growth where information regarding degree of malabsorption leads to improved nutritional intervention and pancreatic enzyme therapy. Also, children greater than 8 years of age are mature enough to provide assent and feedback concerning acceptability and tolerance of the MBT.\nIn the experiments shown in FIGS. 12 through 15, three subjects with CF were given either 30 mg/kg PA and 60 mg/kg THA (2 subjects) or 30 mg/kg PA and 90 mg/kg THA (1 subject) in a digestible composition consisting of a liquid breakfast shake after a 12 hour fast. The subjects were tested while they were taking their usual doses of pancreatic enzymes and then were tested again (more than one week later) when they were not taking pancreatic enzymes. Blood was sampled at baseline and then at hourly intervals from 2 to 8 hours and then sampled again at 24 hours. Subjects were fed a prepared lunchtime meal with a known quantity of fat (80 grams). The individual results for fat absorption for the 3 subjects with CF on enzymes are presented in FIG. 12 for PA and FIG. 13 for HA. For the same 3 subjects with CF off enzymes, the results for fat absorption are presented in FIG. 14 for PA and FIG. 15 for HA.\nAdditional experiments were performed on six subjects with CF either on or off pancreatic enzyme treatment. The serum levels of PA and HA in these six subjects on and off pancreatic enzyme treatment are presented in FIG. 16 anf FIG. 17, respectively."}, "[4]": {"conditions": "four healthy control subjects, 30 mg/kg PA and 60 mg/kg THA, FIG. 3A, 4, 5A"}, "[5]": {"conditions": "four healthy control subjects, 30 mg/kg PA and 90 mg/kg THA, FIG. 6-8"}},
  "data": [
    {"compound": "CCCCCCCCCCCCCCC(=O)O", "note": "[PA, pentadecanoic acid]", "values": [
      {"measurement": "delay before rise in serum concentration", "setting": "[1]; four healthy control subjects, 30 mg/kg PA and 30 mg/kg THA, liquid breakfast shake after 12-hour fast, FIG. 2", "result": "approximately half"},
      {"measurement": "time at which increase in serum level is evident / begins", "setting": "[1]; [4]", "result": "≤ 2", "unit": "h"},
      {"measurement": "time of peak serum level", "setting": "[1]; [4]", "result": 6, "unit": "h"},
      {"measurement": "time at which increase in serum level is evident", "setting": "[1]; [5]", "result": "≤ 2", "unit": "h"},
      {"measurement": "time of peak serum level", "setting": "[1]; [5]", "result": 6, "unit": "h"},
      {"measurement": "peak serum level", "setting": "[1]; four healthy control subjects, 30 mg/kg PA and either 60 or 90 mg/kg THA oral at baseline, FIG. 1 model", "result": "approximately 4 mg/dL"},
      {"measurement": "time of peak serum level", "setting": "[1]; four healthy control subjects, 30 mg/kg PA and either 60 or 90 mg/kg THA oral, FIG. 1 model", "result": "six"},
      {"measurement": "concentration at 8 h", "setting": "[1]; human, serum, four healthy control subjects, 30 mg/kg PA and either 60 or 90 mg/kg THA oral, FIG. 1 model, read-out: serum level by eight hours post dose", "result": "~10000", "unit": "ng/mL"},
      {"measurement": "pattern of serum response", "setting": "[1]; six healthy volunteers, PA 2.5 grams and THA 5.0 or 8.0 grams, FIG. 3B", "result": "increasing over the first two hours and remaining elevated through hour six"},
      {"measurement": "average absorption", "setting": "[2]", "result": "approximately 65%"},
      {"measurement": "hour by which serum levels increased", "setting": "[3]; subjects with CF off pancreatic enzymes", "result": "≤ 2", "unit": "h"},
      {"measurement": "hour by which increase in absorption was evident", "setting": "[3]; subjects with CF on pancreatic enzymes", "result": "≤ 2", "unit": "h"},
      {"measurement": "serum levels compared with healthy control subjects", "setting": "[3]; subjects with CF taking pancreatic enzymes", "result": "lower"}
    ]}
  ]
}
